Experimental data published in patent publication US9440957B2, “Compounds and compositions for modulating EGFR Activity” (Novartis AG, priority 2012, dated 2016).
Where two headings read alike, the source gives them in different places.

Key:
HEKn (EGFR WT) = HEKn (EGFR WT) (Homo sapiens, UniProt P00533); test: EGFR target modulation in HEKn (EGFR-WT) cell line (phospho-EGFR Y1173 ELISA); format: cell-based; conditions: value outside parentheses
Experimental: EGFR Target Modulation in HEKn (EGFR-WT) Cell Line Tissue Culture. Human neonatal epithelial keratinocytes (Invitrogen #C-001-5C) were maintained in EpiLife media (Invitrogen #[…]) supplemented with growth factors (Invitrogen #S-001-5). Cells were harvested with 0.05% Trypsin/EDTA (Hyclone #SH30236.01) and quenched with 5% FBS/EpiLife media. […] The serial diluted compounds were transferred to the plate containing cells by using a 50 nl Pin Head device (Perkin Elmer) and the cells were placed back in the incubator for 3 hours. […] Phospho-EGFR (Y1173) ELISA. Solid white high-binding ELISA plates (Greiner #781074) were coated with 5 ug/ml anti-EGFR capture antibody (R&D Systems #AF231) overnight in 50 mM carbonate/bicarbonate pH 9.5 buffer. […] Wash steps were carried out with a Bio-Tek ELx405 SelectTM using 4 cycles of 100 ul TBS-T (20 mM Tris, 137 mM NaCl, 0.05% Tween-20) per well. […] Lysis was allowed to occur for 20 minutes on ice. A 25 ul aliquot was added to each well of the blocked ELISA plate and incubated overnight at 4° C. with gentle shaking. […] After washing, 1:2,000 anti-rabbit-HRP (Cell Signaling #7074) in 0.2% BSA/TBS-T was added and incubated for 1 hour at room temperature. Chemiluminescent detection was carried out with SuperSignal ELISA Pico substrate (ThermoScientific #37069). Signal was read on EnVision plate reader using built-in UltraLUM setting. Data Analysis. Control cells treated with EGF were set to 100% maximum response. […] With these parameters, the IC50's for each compound in each cell line was calculated using non-linear curve fitting analysis.

[1] = molecular target: human EGFR WT (NIH/3T3 cells, EGF-induced) (Homo sapiens, UniProt P00533); test: EGFR target modulation in engineered NIH/3T3 cell lines (phospho-EGFR Y1068 AlphaLISA), EGFR WT; format: cell-based; conditions: engineered NIH/3T3 cells, read-out: NIH3T3 IC50 (μM) EGFR (WT)
How it was run: (§1)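 Engineered NIH/3T3 cells were plated overnight, then exposed to a 12-point 1:3 compound series (from a 10 μM stock) for 3 hours at 37 °C. WT-expressing cells alone were stimulated with 50 ng/ml EGF for 5 minutes before lysis. IC50s came from non-linear fits of AlphaLISA signal.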

[2] = molecular target: human EGFR L858R (NIH/3T3 cells) (Homo sapiens, UniProt P00533, L858R); test: EGFR target modulation in engineered NIH/3T3 cell lines (phospho-EGFR Y1068 AlphaLISA), EGFR L858R; format: cell-based; conditions: engineered NIH/3T3 cells, read-out: NIH3T3 IC50 (μM) EGFR (L858R)
human EGFR L858R (NIH/3T3 cells), sequence (P00533 25-1210 L858R): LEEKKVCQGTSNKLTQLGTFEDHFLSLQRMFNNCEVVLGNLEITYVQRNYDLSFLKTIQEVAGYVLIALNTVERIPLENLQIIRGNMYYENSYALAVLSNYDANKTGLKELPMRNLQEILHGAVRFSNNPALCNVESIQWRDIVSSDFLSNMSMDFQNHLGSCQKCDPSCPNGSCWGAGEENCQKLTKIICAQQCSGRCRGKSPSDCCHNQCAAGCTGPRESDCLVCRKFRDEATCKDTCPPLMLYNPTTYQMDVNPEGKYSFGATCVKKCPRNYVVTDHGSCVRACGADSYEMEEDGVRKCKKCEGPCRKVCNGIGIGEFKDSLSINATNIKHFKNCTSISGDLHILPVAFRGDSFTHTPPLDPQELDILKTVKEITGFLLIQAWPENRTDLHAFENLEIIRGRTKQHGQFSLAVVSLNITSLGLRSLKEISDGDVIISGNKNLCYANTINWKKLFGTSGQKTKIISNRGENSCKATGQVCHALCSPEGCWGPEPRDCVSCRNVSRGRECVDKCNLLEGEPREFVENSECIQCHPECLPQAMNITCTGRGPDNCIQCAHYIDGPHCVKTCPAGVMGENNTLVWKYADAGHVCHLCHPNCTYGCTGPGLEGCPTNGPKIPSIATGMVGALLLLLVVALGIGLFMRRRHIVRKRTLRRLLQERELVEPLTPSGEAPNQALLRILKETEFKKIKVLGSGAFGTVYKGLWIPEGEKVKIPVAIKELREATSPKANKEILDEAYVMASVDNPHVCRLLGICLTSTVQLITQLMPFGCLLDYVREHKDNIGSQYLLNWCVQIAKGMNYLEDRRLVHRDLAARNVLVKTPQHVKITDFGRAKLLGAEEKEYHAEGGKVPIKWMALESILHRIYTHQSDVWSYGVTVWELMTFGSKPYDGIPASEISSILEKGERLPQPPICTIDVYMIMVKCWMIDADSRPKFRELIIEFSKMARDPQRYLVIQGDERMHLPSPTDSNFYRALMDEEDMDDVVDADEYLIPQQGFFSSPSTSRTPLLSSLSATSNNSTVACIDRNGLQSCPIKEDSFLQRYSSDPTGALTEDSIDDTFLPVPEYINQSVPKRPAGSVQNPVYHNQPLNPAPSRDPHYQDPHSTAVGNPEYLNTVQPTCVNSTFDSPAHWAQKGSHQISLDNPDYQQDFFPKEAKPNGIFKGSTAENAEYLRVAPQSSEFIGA
How it was run: as §1

EGFR(L858R/T790M) = molecular target: T1, EGFR(L858R/T790M) (Homo sapiens, UniProt P00533, L858R/T790M); test: EGFR biochemical assay (HTRF), IC50 determinations
T1 construct: purchased from Carna (GST-a.a. 669-1210)
T1 sequence (P00533 669-1210 T790M/L858R): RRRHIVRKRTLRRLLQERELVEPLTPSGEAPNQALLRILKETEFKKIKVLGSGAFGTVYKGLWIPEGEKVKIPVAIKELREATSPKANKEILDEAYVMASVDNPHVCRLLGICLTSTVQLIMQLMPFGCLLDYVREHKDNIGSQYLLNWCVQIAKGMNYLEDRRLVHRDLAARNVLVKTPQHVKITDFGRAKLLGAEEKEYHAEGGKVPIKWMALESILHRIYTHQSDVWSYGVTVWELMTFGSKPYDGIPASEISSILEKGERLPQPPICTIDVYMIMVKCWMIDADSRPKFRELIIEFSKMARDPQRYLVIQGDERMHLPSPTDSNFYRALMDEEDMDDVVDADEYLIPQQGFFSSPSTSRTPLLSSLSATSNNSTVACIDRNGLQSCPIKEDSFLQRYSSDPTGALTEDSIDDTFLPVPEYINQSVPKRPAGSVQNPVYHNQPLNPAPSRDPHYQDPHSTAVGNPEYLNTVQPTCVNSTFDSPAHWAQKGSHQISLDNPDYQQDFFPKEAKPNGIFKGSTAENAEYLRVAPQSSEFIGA
How it was run: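 Two formats were run: compound preincubated at room temperature with enzyme and biotin-TK peptide before ATP starts the reaction, or no preincubation with enzyme added last. Reactions ran 60 min at room temperature and were stopped with EDTA. Phosphopeptide was read by HTRF (PT66K/SAXL, 1 h).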

[3] = molecular target: human EGFR L858R/T790M (NIH/3T3 cells) (Homo sapiens, UniProt P00533, L858R/T790M); test: EGFR target modulation in engineered NIH/3T3 cell lines (phospho-EGFR Y1068 AlphaLISA), EGFR L858R/T790M; format: cell-based; conditions: engineered NIH/3T3 cells, read-out: NIH3T3 IC50 (μM) EGFR (L858R/T790M)
How it was run: as §1

H1975 (EGFR L858/T790M) = H1975 (EGFR L858/T790M) (Homo sapiens, UniProt P00533, L858R/T790M); test: EGFR target modulation in H1975 cell line (phospho-EGFR Y1173 ELISA); format: cell-based
H1975 (EGFR L858/T790M), sequence (P00533 25-1210 T790M/L858R): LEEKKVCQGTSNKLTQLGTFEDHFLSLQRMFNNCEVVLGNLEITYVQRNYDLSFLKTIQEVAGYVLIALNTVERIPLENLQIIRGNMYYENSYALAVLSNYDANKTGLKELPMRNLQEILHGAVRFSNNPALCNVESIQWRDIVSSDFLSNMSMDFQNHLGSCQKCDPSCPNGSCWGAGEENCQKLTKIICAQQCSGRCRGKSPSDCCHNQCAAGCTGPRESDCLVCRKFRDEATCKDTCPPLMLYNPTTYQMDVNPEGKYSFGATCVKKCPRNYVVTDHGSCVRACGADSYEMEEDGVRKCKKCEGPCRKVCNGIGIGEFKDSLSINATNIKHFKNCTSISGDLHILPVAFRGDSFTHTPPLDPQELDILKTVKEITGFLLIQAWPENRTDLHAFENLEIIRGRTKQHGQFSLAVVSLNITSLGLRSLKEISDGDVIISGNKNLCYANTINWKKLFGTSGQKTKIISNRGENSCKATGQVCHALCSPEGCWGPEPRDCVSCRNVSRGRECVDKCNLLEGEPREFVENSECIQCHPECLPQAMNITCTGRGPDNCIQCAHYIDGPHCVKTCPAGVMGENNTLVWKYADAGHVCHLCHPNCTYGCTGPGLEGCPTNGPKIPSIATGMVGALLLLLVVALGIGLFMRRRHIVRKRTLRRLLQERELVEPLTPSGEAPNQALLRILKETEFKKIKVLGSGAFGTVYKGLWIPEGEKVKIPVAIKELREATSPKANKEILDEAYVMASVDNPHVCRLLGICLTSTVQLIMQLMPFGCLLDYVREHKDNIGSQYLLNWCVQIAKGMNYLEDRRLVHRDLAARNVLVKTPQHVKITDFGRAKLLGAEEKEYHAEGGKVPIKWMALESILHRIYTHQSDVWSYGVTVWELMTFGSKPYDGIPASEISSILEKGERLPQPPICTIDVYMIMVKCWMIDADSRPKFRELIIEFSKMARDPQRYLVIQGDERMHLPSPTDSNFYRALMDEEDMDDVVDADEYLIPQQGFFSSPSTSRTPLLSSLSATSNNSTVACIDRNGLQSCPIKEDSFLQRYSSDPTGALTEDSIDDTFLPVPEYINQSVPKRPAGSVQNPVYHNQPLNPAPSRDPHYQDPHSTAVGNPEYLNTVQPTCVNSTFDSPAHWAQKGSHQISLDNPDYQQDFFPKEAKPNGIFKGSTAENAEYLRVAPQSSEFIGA
Experimental: (§2) EGFR Target Modulation in H1975, H3255 and HCC827 Cell Lines Tissue Culture. Cells were maintained in 10% FBS/RPMI supplemented with 100 μg/ml Penicillin/Streptomycin (Hyclone #SH30236.01). […] The cells were allowed to incubate overnight in a 37° C., 5% CO2 humidified tissue culture incubator. […] The serial diluted compounds were transferred to the plate containing cells by using a 50 nl Pin Head device (Perkin Elmer) and the cells were placed back in the incubator for 3 hours. Phospho-EGFR ([…]) Target Modulation Assay. The media was reduced to 20 ul using a Bio-Tek ELx 405 SelectTM plate washer. […] The plates were shaken at 4° C. for 20 minutes. An aliquot of 25 ul from each well was transferred to pEGFR(Y1173) ELISA plates for analysis. Phospho-EGFR ([…]) ELISA. Solid white high-binding ELISA plates (Greiner #781074) were coated with 5 ug/ml anti-EGFR capture antibody (R&D Systems #AF231) overnight in 50 mM carbonate/bicarbonate pH 9.5 buffer. Plates were blocked with 1% BSA (Sigma #A7030) in PBS for 1 hour at room temperature. Wash steps were carried out with a Bio-Tek ELx405 SelectTM using 4 cycles of 100 ul TBS-T (20 mM Tris, 137 mM NaCl, 0.05% Tween-20) per well. […] Lysis was allowed to occur for 20 minutes on ice. A 25 ul aliquot was added to each well of the blocked ELISA plate and incubated overnight at 4° C. with gentle shaking. […] After washing, 1:2,000 anti-rabbit-HRP (Cell Signaling #7074) in 0.2% BSA/TBS-T was added and incubated for 1 hour at room temperature. Chemiluminescent detection was carried out with SuperSignal ELISA Pico substrate (ThermoScientific #37069). Signal was read on EnVision plate reader using built-in UltraLUM setting. Data Analysis. Control cells treated with EGF were set to 100% maximum response. […] With these parameters, the IC50's for each compound in each cell line was calculated using non-linear curve fitting analysis.

H3255 (EGFR L858R) = H3255 (EGFR L858R) (Homo sapiens, UniProt P00533, L858R); test: EGFR target modulation in H3255 cell line (phospho-EGFR Y1173 ELISA); format: cell-based
H3255 (EGFR L858R), sequence (P00533 25-1210 L858R): as the sequence (P00533 25-1210 L858R) above
Experimental: as §2

[4] = EGFR (L858R/T790M) with 90 min pre-incubation, read-out: IC50 (μM) Column B
[5] = EGFR (L858R/T790M) with no pre-incubation, read-out: IC50 (μM) Column A

In the case of `C=CC(=O)N1CCCC[C@@H](n2c(NC(=O)c3cccc(C(F)(F)F)c3)nc3cccc(C)c32)C1` (single isomer, unassigned) [Example 21-4], the IC50 (HEKn (EGFR WT)) is reported as 285 nM, the IC50 [1] is reported as 0.239 µM and the IC50 [2] is reported as 0.004 µM. For the same molecule, the IC50 (EGFR(L858R/T790M); [4]) was under 0.001 µM, the IC50 (EGFR(L858R/T790M); [5]) was 0.006 µM and the IC50 [3] was 0.002 µM. For the same molecule, the IC50 (H1975 (EGFR L858/T790M)) was 1 nM and the IC50 (H3255 (EGFR L858R)) was 13 nM.
In the case of `Cc1ncc(C(=O)Nc2nc3cccc(C)c3n2C2CCCCN(C(=O)/C=C/CN(C)C)C2)s1` (single isomer, unassigned) [Example 21-8B], the IC50 (HEKn (EGFR WT)) is reported as 95 nM, the IC50 [1] is reported as 0.016 µM and the IC50 [2] is reported as 0.001 µM. For the same molecule, the IC50 (EGFR(L858R/T790M); [4]) was under 0.001 µM, the IC50 (EGFR(L858R/T790M); [5]) was 0.006 µM and the IC50 [3] was 0.002 µM. The IC50 (H1975 (EGFR L858/T790M)) was 4 nM and the IC50 (H3255 (EGFR L858R)) was 2 nM.
Work on `Cc1cc(C(=O)Nc2nc3cccc(Cl)c3n2[C@@H]2CCCCN(C(=O)/C=C/CN3CC[C@@H](F)C3)C2)ccn1` [Example 3-1] yielded an IC50 (HEKn (EGFR WT)) of 340 nM, an IC50 [1] of 0.235 µM and an IC50 [2] of 0.003 µM. The IC50 (EGFR(L858R/T790M); [4]) was under 0.001 µM, the IC50 (EGFR(L858R/T790M); [5]) was 0.005 µM and the IC50 [3] was 0.004 µM. For the same molecule, the IC50 (H1975 (EGFR L858/T790M)) was 6 nM and the IC50 (H3255 (EGFR L858R)) was 7 nM.
Work on `Cc1cc(C(=O)Nc2nc3cccc(Cl)c3n2[C@@H]2CCCCN(C(=O)/C=C/CN3CC[C@H](F)C3)C2)ccn1` [Example 3-2] yielded an IC50 (HEKn (EGFR WT)) of 720 nM, an IC50 [1] of 0.303 µM and an IC50 [2] of 0.006 µM. The IC50 (EGFR(L858R/T790M); [4]) was under 0.001 µM, the IC50 (EGFR(L858R/T790M); [5]) was 0.007 µM and the IC50 [3] was 0.006 µM. The IC50 (H1975 (EGFR L858/T790M)) was 9 nM and the IC50 (H3255 (EGFR L858R)) was 11 nM.
Molecule `Cc1cc(C(=O)Nc2nc3cccc(C)c3n2[C@@H]2CCCCN(C(=O)/C=C/CN3CC[C@@H](F)C3)C2)ccn1` [Example 3-10] has an IC50 (HEKn (EGFR WT)) of 620 nM, an IC50 (EGFR(L858R/T790M); [4]) of under 0.001 µM and an IC50 (EGFR(L858R/T790M); [5]) of 0.006 µM. For the same molecule, the IC50 (H1975 (EGFR L858/T790M)) was 8 nM and the IC50 (H3255 (EGFR L858R)) was 13 nM.
Molecule `O=C(Nc1nc2cccc(Cl)c2n1[C@@H]1CCCCN(C(=O)/C=C/CN2CC[C@@H](F)C2)C1)c1ccnnc1` [Example 3-11] has an IC50 (HEKn (EGFR WT)) of 169 nM, an IC50 (EGFR(L858R/T790M); [4]) of under 0.001 µM and an IC50 (EGFR(L858R/T790M); [5]) of 0.005 µM. For the same molecule, the IC50 (H1975 (EGFR L858/T790M)) was 7 nM and the IC50 (H3255 (EGFR L858R)) was 9 nM.
With `Cc1cc(C(=O)Nc2nc3cccc(Cl)c3n2[C@@H]2CCCCN(C(=O)/C=C/CN3CCC3)C2)ccn1` [Example 3-12] the IC50 (HEKn (EGFR WT)) was over 10000 nM, the IC50 [1] was 1.13 µM and the IC50 [2] was 0.05 µM. The IC50 (EGFR(L858R/T790M); [4]) was 0.011 µM, the IC50 (EGFR(L858R/T790M); [5]) was 0.133 µM and the IC50 [3] was 0.123 µM. For the same molecule, the IC50 (H1975 (EGFR L858/T790M)) was 186 nM and the IC50 (H3255 (EGFR L858R)) was 200 nM.
`Cc1cc(C(=O)Nc2nc3cccc(Cl)c3n2[C@@H]2CCCCN(C(=O)/C=C/CN3CC(O)C3)C2)ccn1` [Example 3-13] was tested, and the IC50 (HEKn (EGFR WT)) was 900 nM, the IC50 [1] was 0.41 µM and the IC50 [2] was 0.014 µM. For the same molecule, the IC50 (EGFR(L858R/T790M); [4]) was under 0.001 µM, the IC50 (EGFR(L858R/T790M); [5]) was 0.007 µM and the IC50 [3] was 0.022 µM. It also gave an IC50 (H1975 (EGFR L858/T790M)) of 19 nM and an IC50 (H3255 (EGFR L858R)) of 12 nM.
